From publication PMC11408249, “Non-invasive in vivo imaging of changes in Collagen III turnover in myocardial fibrosis” (npj Imaging, 2024)

Target: T1, COL3 (Homo sapiens, UniProt P02461)
T1 sequence (P02461 154-1221 limits assumed): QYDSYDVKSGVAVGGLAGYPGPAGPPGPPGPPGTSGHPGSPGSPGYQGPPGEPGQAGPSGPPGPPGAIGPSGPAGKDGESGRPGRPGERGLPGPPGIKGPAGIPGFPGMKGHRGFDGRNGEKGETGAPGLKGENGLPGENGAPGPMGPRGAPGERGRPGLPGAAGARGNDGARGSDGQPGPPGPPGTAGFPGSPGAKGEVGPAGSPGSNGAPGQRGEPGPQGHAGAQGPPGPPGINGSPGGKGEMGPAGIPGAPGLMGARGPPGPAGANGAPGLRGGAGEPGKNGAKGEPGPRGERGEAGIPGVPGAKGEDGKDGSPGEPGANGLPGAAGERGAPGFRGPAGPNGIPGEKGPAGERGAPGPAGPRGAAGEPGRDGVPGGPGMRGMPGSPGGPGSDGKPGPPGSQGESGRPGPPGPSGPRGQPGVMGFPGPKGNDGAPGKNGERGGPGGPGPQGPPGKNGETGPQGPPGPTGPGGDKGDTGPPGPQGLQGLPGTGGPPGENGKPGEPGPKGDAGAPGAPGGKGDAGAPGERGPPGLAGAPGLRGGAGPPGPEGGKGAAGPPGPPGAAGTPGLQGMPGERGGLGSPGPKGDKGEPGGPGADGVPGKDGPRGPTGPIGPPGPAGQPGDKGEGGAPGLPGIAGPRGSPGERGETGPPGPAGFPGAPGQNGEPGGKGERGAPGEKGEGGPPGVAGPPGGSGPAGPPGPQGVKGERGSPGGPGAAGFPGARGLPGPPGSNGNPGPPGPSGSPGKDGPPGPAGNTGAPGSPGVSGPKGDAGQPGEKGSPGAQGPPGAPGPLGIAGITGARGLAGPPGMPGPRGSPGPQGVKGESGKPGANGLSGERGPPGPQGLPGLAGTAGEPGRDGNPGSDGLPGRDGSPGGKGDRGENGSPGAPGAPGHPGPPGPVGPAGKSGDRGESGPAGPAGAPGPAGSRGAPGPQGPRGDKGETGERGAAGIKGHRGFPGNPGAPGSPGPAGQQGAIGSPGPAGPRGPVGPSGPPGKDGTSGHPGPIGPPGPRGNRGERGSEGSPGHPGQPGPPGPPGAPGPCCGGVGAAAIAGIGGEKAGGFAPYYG
Assay: Competition assay: Gd(III) tetrameric probe displaces Eu(III) monomeric probe from COL3
Format: binding
Conditions: 5 µM Eu(III) monomeric probe, Gd tetrameric probe 0.01–200 µM, 1 h room temperature
Description: The binding interactions of the tetrameric Gd(III)-labelled probes with COL3 were studied by a competition assay, as Gd(III) is not suitable for TRF based assays. In competition assays, the binding of the Gd(III)-labelled tetrameric probe of interest to the target protein was measured by competition with the corresponding Eu(III)-labelled monomeric probe. Specifically, a row of wells was coated with collagen (COL3) and added with a constant amount of the Eu(III)-labelled probe of interest (e.g. Eu-DOTAMA-CBP1). Wells were then added and incubated with increasing concentrations of the corresponding tetrameric Gd(III)-labelled probes (e.g. [Gd-DOTAMA]4-CBP1). Displacement curves were then obtained by plotting the residual Eu(III) TRF against the concentration of the Gd(III)-labelled probe. Briefly, eight solutions were made containing a fixed concentration of Eu(III)-monomeric probe (5 µM) and increasing concentrations of the Gd-tetrameric probe (0.01–200 µM). Plates pre-coated with COL3 were simultaneously incubated with both compounds for 1 h at room temperature (triplicate wells per plate and 3 independent plates). After the incubation, the Eu(III) TRF assay protocol including the acid extraction and enhancement solution steps were used to measure the binding of the monomeric probe in the presence of the competing tetrameric probe, as previously described. […]

Substance | displacement of the monomeric Eu(III)-labelled counterpart from COL3 (in words)
Ac-C-RDKKVAEQS [[Gd-DOTAMA]4-SccCBP1, scrambled tetrameric Gd probe (Ac-C-…), negative control] | cannot
Ac-C-TEFPLRMRDWLKN [[Gd-DOTAMA]4-CBP2, tetrameric probe: tri-lysine scaffold bearing four Gd-DOTAMA units conjugated at the N-terminus of CBP2] | can be observed only at very high concentrations
